Holding throughout (assay type): nucleic-acid assay
Common to all, as to conditions: Bos taurus

Experiment [1] concerns DNA. The experiment is described as follows: Binding affinity to calf thymus DNA at 90 uM at pH 2 to 8.5 by resonance light scattering analysis.
Experiment [2] deals with DNA. Nature of the experiment: Binding affinity to calf thymus DNA at 10^-5 M by atomic force microscopic analysis.
In experiment [3] the test system is DNA. The experiment is described as follows: Binding affinity to calf thymus DNA at 5 X 10^-5 M by fluorescence polarization assay. (In general: Fluorescence polarisation rises when a labelled molecule tumbles more slowly, as on binding a larger partner.)
The subject of experiment [4] is Calf thymus DNA. Nature of the experiment: Binding affinity to calf thymus double helix DNA at 90 uM by resonance light scattering analysis in presence of 0.005 to 0.2 M NaCl.
The subject of experiment [5] is DNA. Nature of the experiment: Binding affinity to calf thymus DNA at 10 to 160 uM by resonance light scattering analysis.
In experiment [6] the test system is DNA. The experiment is described as follows: Binding affinity to calf thymus DNA at 1 ug/ml at pH 2.5 by SEM analysis.
Experiment [7] deals with DNA. Nature of the experiment: Binding affinity to calf thymus DNA by Stern-Volmer plot analysis.
The subject of experiment [8] is Calf thymus DNA. The experiment is described as follows: Binding affinity to calf thymus dsDNA at 1 X 10^-5 to 2 x 10^-5 M after 10 mins by UV/vis spectrophotometric analysis.
In experiment [9] the test system is DNA. Nature of the experiment: Binding affinity to calf thymus DNA at 1 X 10^-5 M by spectrofluorimetric analysis.

The structures appear in SMILES notation. Calls of active or inactive are those of the source. The calls are words filed in the database; no cut-off is given here.

Regarding `C=C1C(=O)[C@]23[C@H](O)[C@H]1CC[C@H]2[C@@]12CO[C@]3(O)[C@@H](O)[C@@H]1C(C)(C)CC[C@@H]2O`, the result in the experiment with DNA [1], in the experiment on DNA [2], in the experiment with DNA [3], in the experiment on Calf thymus DNA [4], in the experiment on DNA [5] and in the experiment with DNA [6] was Active. Besides, the outcome in the experiment with Calf thymus DNA [8] and in the experiment on DNA [9] was Active. Further, the KSV with DNA [7] stood at 1.79 ×10⁵ /M.

The values are drawn from ChEMBL document CHEMBL2412951, “Resonance light scattering technique as a new tool to determine the binding mode of anticancer drug oridonin to DNA” (Eur J Med Chem, 2013).
